In US8436138B2, “Binder for C-reactive protein” (Modpro AB, priority 2006, dated 2013):

Experiment: Stability in aqueous solution
Assay type: physicochemical
Conditions: acidic pH (0.1% TFA)
Source text: Commercially available aminohexanoic acid 2 was N,N-dimethylated^11 12 by an Eschweiler-Clarke-type procedure (treatment with formaldehyde and hydrogen/palladium/carbon), and the resulting product (3, 86%) was esterified by treatment with methanolic hydrogen chloride to give the methyl ester 4 (96%). Quartenarization was effected by reacting 4 with monomethoxytrityl-protected bromoethanol 1, forming derivative 5 (73%). Unprotected bromoethanol could also be reacted with 4, but the reaction yield was lower and the product was more difficult to detect and purify. Monomethoxytrityl protection conferred lipophilicity and TLC detectability (UV visible and acid stainable) to the crucial intermediate 5. Saponification of 5 with lithium hydroxide/water/t-butanol gave the corresponding acid 6 (95%), which was treated without isolation with p-nitrophenol and diisopropyl carbodiimide in pyridine to give the p-nitrophenyl ester 7 (86%). Brief treatment of 7 with formic acid gave the corresponding alcohol 8, which was used directly in the next step, because of its sensitivity to self-condensation. Reaction of crude 8 at 0° C. in acetonitril with first an excess of phosphorous oxychloride and triethylamine, then water gave the desired monophosphate 9 in 22% yield from 7, after HPLC purification. […]

SMILES: C[N+](C)(CCCCCC(=O)Oc1ccc([N+](=O)[O-])cc1)CCOP(=O)([O-])O [Peptide 9, 6-(N,N-Dimethylamino)-N-[(2-phosphoryloxy)-ethyl]-hexanoic acid p-nitrophenyl ester]
- stability in aqueous solution: stable
